This is an account of results in patent publication US20190367516A1 (Bayer Pharma Aktiengesellschaft, priority 2015, published 2019).

Where two headings read alike, the source gives them in different places.

The target of this test is T1, human M2 receptor (Homo sapiens, UniProt P08172).
T1 sequence (P08172 1-466): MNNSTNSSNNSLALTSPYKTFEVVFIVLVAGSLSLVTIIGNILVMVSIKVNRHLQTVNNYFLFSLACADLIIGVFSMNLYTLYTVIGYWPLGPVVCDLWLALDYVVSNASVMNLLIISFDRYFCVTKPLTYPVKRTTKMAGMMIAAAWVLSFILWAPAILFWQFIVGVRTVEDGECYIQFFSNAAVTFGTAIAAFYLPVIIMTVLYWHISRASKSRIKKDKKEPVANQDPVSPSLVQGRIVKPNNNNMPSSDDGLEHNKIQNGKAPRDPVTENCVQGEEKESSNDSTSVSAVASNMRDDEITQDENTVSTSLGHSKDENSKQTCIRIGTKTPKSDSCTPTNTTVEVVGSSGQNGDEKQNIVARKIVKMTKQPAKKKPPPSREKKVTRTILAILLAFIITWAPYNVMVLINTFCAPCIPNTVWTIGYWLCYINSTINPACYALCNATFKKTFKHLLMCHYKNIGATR
The conditions noted are these: for Emax: read-out: Efficiency, boosting of the acetylcholine effect at EC20 acetylcholine concentration.

[1] abbreviates: Receptor activity EC50, M2-GIRK1/4 activation test, acetylcholine at EC20, allosteric potency, in some cases mean values from two or more determinations.
[2] abbreviates: Receptor activity EC50, allosteric potency at EC20 acetylcholine, M2-GIRK1/4 reporter cells, in some cases mean of two or more determinations.

For `CC[C@H](NC(=O)c1cn(-c2c(F)cc(F)cc2F)c2nc(N3CCNC3=O)ccc2c1=O)C(F)(F)F` [Example 343, 4-Oxo-7-(2-oxoimidazolidin-1-yl)-N-[(2S)-1,1,1-trifluorobutan-2-yl]-1-(2,4,6-trifluorophenyl)-1,4-dihydro-1,8-naphthyridine-3-carboxamide], the response under setting [1] was half-maximal at 25 nM (EC50).
Still for that read-out and setting: as for `CN(C)c1ccc2c(=O)c(C(=O)NC(Cc3ccccc3)C(F)(F)F)cn(-c3ccc(F)cc3F)c2n1` (racemic) [Example 143, rac-1-(2,4-Difluorophenyl)-7-(dimethylamino)-4-oxo-N-(1,1,1-trifluoro-3-phenylpropan-2-yl)-1,4-dihydro-1,8-naphthyridine-3-carboxamide], the figure is 37 nM; as for `O=C(NC(C(F)(F)F)C(F)(F)F)c1cn(-c2ccc(F)cc2F)c2nc(NCC(F)F)ccc2c1=O` [Example 126, 7-[(2,2-Difluoroethyl)amino]-1-(2,4-difluorophenyl)-N-(1,1,1,3,3,3-hexafluoropropan-2-yl)-4-oxo-1,4-dihydro-1,8-naphthyridine-3-carboxamide], 180 nM; as for `Cc1ccc(C(NC(=O)c2cn(-c3ccc(F)cc3F)c3nc(N(C)C)ccc3c2=O)C(F)(F)F)cc1` (racemic) [Example 141, rac-1-(2,4-Difluorophenyl)-7-(dimethylamino)-4-oxo-N-[2,2,2-trifluoro-1-(4-methylphenyl)ethyl]-1,4-dihydro-1,8-naphthyridine-3-carboxamide], 83 nM.
On the same count and under the same terms, as for `C[C@@H]1CN(c2ccc3c(=O)c(C(=O)N[C@@H](C)COC(F)(F)F)cn(-c4c(F)cc(F)cc4F)c3n2)C(=O)N1` [Example 381, 7-[(4R)-4-Methyl-2-oxoimidazolidin-1-yl]-4-oxo-N-[(2S)-1-(trifluoromethoxy)propan-2-yl]-1-(2,4,6-trifluorophenyl)-1,4-dihydro-1,8-naphthyridine-3-carboxamide], the figure is 23 nM.
As for `CC(C)(CC(F)(F)F)NC(=O)c1cn(-c2c(F)cc(F)cc2Cl)c2nc(N3C[C@@H](O)[C@H](O)C3)ccc2c1=O` (single isomer, unassigned) [Example 392], the EC50 under setting [1] worked out at 6 nM.
`O=C(N[C@@H](C1CC1)C(F)(F)F)c1cn(-c2c(F)cc(F)cc2F)c2nc(N3CCCNC3=O)ccc2c1=O` [Example 604, N-[(1S)-1-Cyclopropyl-2,2,2-trifluoroethyl]-4-oxo-7-(2-oxotetrahydropyrimidin-1(2H)-yl)-1-(2,4,6-trifluorophenyl)-1,4-dihydro-1,8-naphthyridine-3-carboxamide]: it took 25 nM to reach a half-maximal effect under setting [2] (EC50). Where the note is “M2-GIRK1/4 reporter cells”, the Emax was determined as 93.5%.
Consider `COCC(C)(NC(=O)c1cn(-c2ccc(F)cc2F)c2nc(N3C[C@@H](O)CC3=O)ccc2c1=O)C(F)(F)F` (stereo partly drawn) [Example 236, 1-(2,4-Difluorophenyl)-7-[(4S)-4-hydroxy-2-oxopyrrolidin-1-yl]-4-oxo-N-[1,1,1-trifluoro-3-methoxy-2-methylpropan-2-yl]-1,4-dihydro-1,8-naphthyridine-3-carboxamide], for which, under setting [1], it took 860 nM to reach a half-maximal effect (EC50).
Same read-out and setting: as for `CCCC(NC(=O)c1cn(-c2ccc(F)cc2F)c2nc(NCC(F)F)ccc2c1=O)C(F)(F)F` (stereo not shown) [Example 124, 7-[(2,2-Difluoroethyl)amino]-1-(2,4-difluorophenyl)-4-oxo-N-[1,1,1-trifluoropentan-2-yl]-1,4-dihydro-1,8-naphthyridine-3-carboxamide], the figure is 155 nM.
In turn, `CC[C@H](NC(=O)c1cn(-c2c(F)cc(F)cc2F)c2nc(N3CCC(CO)(CO)CC3)ccc2c1=O)C(F)(F)F` [Example 500] registered a concentration giving a half-maximal response (EC50) under setting [2] of 76 nM. Besides, the Emax (M2-GIRK1/4 reporter cells) stood at 100%.
In the case of `NC(=O)N1CCN(c2ccc3c(=O)c(C(=O)NC45CC6CC(CC(C6)C4)C5)cn(-c4ccc(F)cc4F)c3n2)CC1` [Example 12, 7-(4-Carbamoylpiperazin-1-yl)-1-(2,4-difluorophenyl)-4-oxo-N-(tricyclo[3.3.1.1^3,7]dec-1-yl)-1,4-dihydro-1,8-naphthyridine-3-carboxamide], under setting [1], the EC50 turned out to be 64 nM.
Still for that read-out and setting: as for `O=C(NC12CC3CC(CC(C3)C1)C2)c1cn(-c2ccc(F)cc2F)c2nc(N3CCCC(CCO)C3)ccc2c1=O` (stereo not shown) [Example 17, 1-(2,4-Difluorophenyl)-7-[3-(2-hydroxyethyl)piperidin-1-yl]-4-oxo-N-(tricyclo[3.3.1.1^3,7]dec-1-yl)-1,4-dihydro-1,8-naphthyridine-3-carboxamide], the figure is 159 nM.
`CC[C@H](NC(=O)c1cn(-c2c(F)cc(F)cc2Cl)c2nc(N3C[C@@H](O)[C@H](O)C3)ccc2c1=O)C(F)(F)F` (single isomer, unassigned) [Example 568] showed an EC50 under setting [2] of 11 nM. Besides, the Efficiency (boosting of the acetylcholine effect at EC20 acetylcholine concentration, M2-GIRK1/4 reporter cells) was 100.0%.
Take `CC(C)(CC(F)(F)F)NC(=O)c1cn(-c2c(F)cc(F)cc2Cl)c2nc(N3C[C@@H](O)CC3=O)ccc2c1=O` [Example 395, 1-(2-Chloro-4,6-difluorophenyl)-7-[(4S)-4-hydroxy-2-oxopyrrolidin-1-yl]-4-oxo-N-(4,4,4-trifluoro-2-methylbutan-2-yl)-1,4-dihydro-1,8-naphthyridine-3-carboxamide]: the EC50 under setting [2] was 7 nM. For the same molecule, the Emax (M2-GIRK1/4 reporter cells) is 100%.
Molecule `CC[C@@H](NC(=O)c1cn(-c2ccc(F)cc2F)c2nc(N3CCCC3=O)ccc2c1=O)C(F)(F)F` [Example 337, 1-(2,4-Difluorophenyl)-4-oxo-7-(2-oxopyrrolidin-1-yl)-N-[(2R)-1,1,1-trifluorobutan-2-yl]-1,4-dihydro-1,8-naphthyridine-3-carboxamide] gave a half-maximal effective concentration (EC50) under setting [1] of 36 nM.
Same read-out and setting: the same measure for `CCC12CC3CC(C1)CC(NC(=O)c1cn(-c4ccc(F)cc4Cl)c4nc(N(C)C)ccc4c1=O)(C3)C2` [Example 157, 1-(2-Chloro-4-fluorophenyl)-7-(dimethylamino)-N-(3-ethyltricyclo[3.3.1.1^3,7]dec-1-yl)-4-oxo-1,4-dihydro-1,8-naphthyridine-3-carboxamide]: 67 nM.
`CC[C@H](NC(=O)c1cn(-c2c(F)cc(F)cc2F)c2nc(N3CC(CNC(C)=O)CC3=O)ccc2c1=O)C(F)(F)F` (stereo partly drawn) [Example 518, 7-[4-(Acetamidomethyl)-2-oxopyrrolidin-1-yl]-4-oxo-N-[(2S)-1,1,1-trifluorobutan-2-yl]-1-(2,4,6-trifluorophenyl)-1,4-dihydro-1,8-naphthyridine-3-carboxamide] came in with an EC50 under setting [2] of 470 nM. For the same molecule, the Emax (M2-GIRK1/4 reporter cells) was determined as 99.5%.
Consider `CC(NC(=O)c1cn(-c2ccc(F)cc2F)c2nc(N(C)CC(F)F)ccc2c1=O)C(F)(F)F` (racemic) [Example 113, rac-7-[(2,2-Difluoroethyl)(methyl)amino]-1-(2,4-difluorophenyl)-4-oxo-N-[1,1,1-trifluoropropan-2-yl]-1,4-dihydro-1,8-naphthyridine-3-carboxamide], for which, under setting [1], the EC50 was 141 nM.
`O=C(NC12CC(F)(C1)C2)c1cn(-c2c(F)cc(F)cc2F)c2nc(N3C[C@@H](O)CC3=O)ccc2c1=O` [Example 367, N-(3-Fluorobicyclo[1.1.1]pent-1-yl)-7-[(4S)-4-hydroxy-2-oxopyrrolidin-1-yl]-4-oxo-1-(2,4,6-trifluorophenyl)-1,4-dihydro-1,8-naphthyridine-3-carboxamide] showed an EC50 under setting [1] of 100 nM.
In turn, `CC[C@@H](NC(=O)c1cn(-c2c(F)cccc2F)c2nc(N3CC(CO)OC3=O)ccc2c1=O)C(F)(F)F` (mixture of isomers) [Example 260, rac-1-(2,6-Difluorophenyl)-7-[5-(hydroxymethyl)-2-oxo-1,3-oxazolidin-3-yl]-4-oxo-N-[(2R)-1,1,1-trifluorobutan-2-yl]-1,4-dihydro-1,8-naphthyridine-3-carboxamide] yielded an EC50 under setting [1] of 280 nM.
`C[C@H](NC(=O)c1cn(-c2c(F)cc(F)cc2Cl)c2nc(N3CC4CC4(O)C3)ccc2c1=O)C(F)(F)F` (stereo partly drawn) [Example 408, 1-(2-Chloro-4,6-difluorophenyl)-7-[1-hydroxy-3-azabicyclo[3.1.0]hex-3-yl]-4-oxo-N-[(2S)-1,1,1-trifluoropropan-2-yl]-1,4-dihydro-1,8-naphthyridine-3-carboxamide] showed an EC50 under setting [2] of 9 nM. Where the note is “M2-GIRK1/4 reporter cells”, the Emax amounted to 94%.
The corresponding values for `C[C@@H]1CN(c2ccc3c(=O)c(C(=O)N[C@@H](C4CC4)C(F)(F)F)cn(-c4c(F)cc(F)cc4F)c3n2)C(=O)O1` [Example 444, N-[(1S)-1-Cyclopropyl-2,2,2-trifluoroethyl]-7-[(5R)-5-methyl-2-oxo-1,3-oxazolidin-3-yl]-4-oxo-1-(2,4,6-trifluorophenyl)-1,4-dihydro-1,8-naphthyridine-3-carboxamide] are 51 nM and 100%.
Turning to `CC(NC(=O)c1cn(-c2ccc(F)cc2F)c2nc(N(C)CC(F)(F)F)ccc2c1=O)C(F)(F)F` (racemic) [Example 99, rac-1-(2,4-Difluorophenyl)-7-[methyl(2,2,2-trifluoroethyl)amino]-4-oxo-N-[1,1,1-trifluoropropan-2-yl]-1,4-dihydro-1,8-naphthyridine-3-carboxamide], the EC50 under setting [1] was found to be 182 nM.
On the same count and under the same terms, as for `CC[C@H](NC(=O)c1cn(-c2c(F)cccc2F)c2nc(N3CCC(C)(O)C3)ccc2c1=O)C(F)(F)F` (stereo partly drawn) [Example 327, 1-(2,6-Difluorophenyl)-7-[3-hydroxy-3-methylpyrrolidin-1-yl]-4-oxo-N-[(2S)-1,1,1-trifluorobutan-2-yl]-1,4-dihydro-1,8-naphthyridine-3-carboxamide], the figure is 69 nM.
